The subject of one assay is SHBs (S) antigen. Nature of the assay: ELISA of SHBs (S) antigen in unfractionated culture medium of 2.2.15 cells. The class given is cell-based, HBV. How it is done: (§1) FIG. 3D: Histogram of the area under the averaged peaks of the densitometric tracing of the gel in FIG. 3B. […] Equal volumes of the indicated samples were tested for HBV envelope antigens using the enzyme-linked imminosorbent assay (ELISA) method. Samples of unfractionated medium (FIGS. 4A, 4B and 4C) or partially purified virus (FIGS. 4D, 4E and 4F) from 3-day cultures were tested for HBV SHBs ("S) (FIGS. 4A and 4D), LHBs: "PreS1" (FIGS. 4B and 4E) or MHBs "PreS2" (FIGS. 4C and 4F) epitopes. Cultures were maintained in the indicated concentrations of NBDNJ, expressed in millimolar units and shown along the X axis.
(§2) Detection of HBV proteins by the Enzyme Linked Immunoabsorbant assay (ELISA).
(§3) Monoclonal antibodies used herein are well-known and are described by Heerman et al., J. Virol. […]
(§4) Bound antigen was detected by incubation with peroxidase conjugated goat anti-HBs antibody (Behring) followed by development in orthophenylenediamine (0.33 mg/ml PBS-peroxide solution). Optical densities were read in a Behring plate reader. Tests on purified virus and total medium were conducted over a series of sample dilutions to insure proper quantification.
(§5) To distinguish between these possibilities, the amount and nature of envelope antigens in the culture medium was determined by both ELISA and Western analysis. […]
A general note: An ELISA detects its analyte on a solid surface through an enzyme-linked reagent.

A further assay deals with MHBs (PreS2). Nature of the assay: Western blot of MHBs in sucrose gradient fractions. Format: cell-based, HBV. On the procedure:
(§6) Polyethylene glycol (PEG) precipitates of culture medium (FIG. 5A) or partly purified virions, HBs filaments and spheres from untreated (FIG. 5B) and NBDNJ treated (FIG. 5C) cultures were resolved by SDS-PAGE (13.5% acrylamide), transferred to immobilin paper and incubated with PreS1 and PreS2 specific monoclonal antibody.
(§7) Samples were dissolved in loading buffer, resolved by electrophoresis through 13.5% SDS polyacrylamide gels (SDS-PAGE) and transferred to PVDF (Millipore) membranes and blocked with 5% powdered milk, as in Gultekin and Heerman, Analytical Biochem. 172, 320-329 (1989). After incubation with primary antibody overnight at room temperature in 1% bovine serum albumin (BSA) in TNE and second antibody (peroxidase conjugated goat anti-mouse IgG serum) for 1 hour in TNE at room temperature, membranes were developed in peroxide-diaminobenzidine (Sigma) PBS, as described in the manufacturer's instructions.
(§8) The ELISA results were confirmed by Western blot analysis of fractions from the sucrose gradient containing either intact virus, filaments or spheres (FIGS. 5B, from untreated cultures, and 5C, from NBDNJ treated cultures). […]
(§9) Fractions distal to the virion containing fractions (near the bottom of the gradient) were resolved in lane 1 to show specificity of the antibody. […] The images shown in FIGS. 5B and 5C) were quantified by densitometry.
In general terms: In western blotting, separated proteins are transferred to a membrane and probed.

Another assay concerns hepatitis B virus (HBV). Description: Intracellular HBV DNA in infected HepG2 cells (PCR, densitometry). The class given is cell-based, HBV in human hepatoma HepG2 cells. The settings on record: HepG2 cells infected with HBV and post treated with NBDNJ, vs untreated. On the procedure:
FIG. 3B and FIG. 3D: DNA from the intracellular compartment of the cultures infected in FIG. 3A with HBV and treated with NBDNJ were amplified by PCR. The lanes contain amplified DNA from the following samples:
FIG. 3D: Histogram of the area under the averaged peaks of the densitometric tracing of the gel in FIG. 3B. […] Equal volumes of the indicated samples were tested for HBV envelope antigens using the enzyme-linked imminosorbent assay (ELISA) method. Samples of unfractionated medium (FIGS. 4A, 4B and 4C) or partially purified virus (FIGS. 4D, 4E and 4F) from 3-day cultures were tested for HBV SHBs ("S) (FIGS. 4A and 4D), LHBs: "PreS1" (FIGS. 4B and 4E) or MHBs "PreS2" (FIGS. 4C and 4F) epitopes. […]
Progeny virus in the medium of HepG2 cells infected with serum derived HBV was detected by precipitating medium with monoclonal antibody to the PreS2 epitopes. […]
Since the culture medium of HBV infected HepG2 cells treated with NBDNJ was similar to 2.2.15 cells, with respect to the reduced amount of virion associated DNA, it was of interest to know if there was a concomitant increase in viral DNA within the treated cells. […] Products of the reaction were resolved by agarose gel electrophoresis and the ethidium bromide stained gel (FIG. 3B) was analyzed by densitometry (FIG. 3D).

In the next assay the test system is HBs proteins. Nature of the assay: Western blot of all HBs proteins in virions, filaments and spheres fractions. Format: cell-based, HBV. The following applies: medium of NBDNJ treated cultures, FIGS. 5B and 5C. How it is done: as §6, §7, §8, §9
A further assay concerns LHBs (PreS1). Nature of the assay: Western blot of LHBs in sucrose gradient virion fraction. The class given is cell-based, HBV. The settings on record: Western blot densitometry, FIG. 5C vs 5B lane 2. How it is done: as §6, §7, §8, §9
Another assay concerns LHBs (PreS1) antigen. Nature of the assay: ELISA of LHBs (PreS1) antigen in unfractionated culture medium of 2.2.15 cells. The class given is cell-based, HBV. On the procedure:
as §1, §2, §3, §4, §5

Consider `CCCCN1C[C@H](O)[C@@H](O)[C@H](O)[C@H]1CO` [NBDNJ, N-butyl-1,5-dideoxy-1,5-imino-D-glucitol], for which the “effect upon total amount of SHBs (S) antigen in medium” value in the assay with SHBs (S) antigen is listed as “no significant effect”. The “decrease of MHBs in virion samples compared to untreated” value with MHBs (PreS2) (Western blot densitometry, FIG. 5C lane 2 vs FIG. 5B lane 2) is recorded as 12 fold. Further, the “decrease in MHBs (PreS2 epitope) (in words)” value in the assay on MHBs (PreS2) (medium of NBDNJ treated cultures, FIGS. 5B and 5C) was “particularly severe”. Besides, the “accumulation of intracellular viral DNA” value in the assay on hepatitis B virus (HBV) is on record as “accumulate greater amounts of viral DNA”. The “amount of all HBs proteins in virions, filaments and spheres” value in the assay on HBs proteins is reported as “decrease in the amount of all HBs proteins”. The “decrease of LHBs in virion samples compared to untreated” value in the assay on LHBs (PreS1) is given as “approximately 4 fold”. Besides, in the assay with LHBs (PreS1) antigen, the “effect upon total amount of LHBs (PreS1) antigen in medium” value is recorded as “no significant effect”.
